Results reported in ChEMBL document CHEMBL3085693, “Discovery of a potent inhibitor of replication protein a protein-protein interactions using a fragment-linking approach” (J Med Chem, 2013).

Tests used:
[1] = target: T1, Replication protein A 70 kDa DNA-binding subunit (Homo sapiens, UniProt P27694); test: Binding affinity to RPA70N (1 to 120) site1 (unknown origin) expressed in Escherichia coli BL21-DE3 cells by NMR spectroscopy
[2] = target: T1, Replication protein A 70 kDa DNA-binding subunit; test: Binding affinity to RPA70N (1 to 120) (unknown origin) expressed in Escherichia coli BL21-DE3 cells by NMR spectroscopy
[3] = target: T1, Replication protein A 70 kDa DNA-binding subunit; test: Binding affinity to RPA70N (1 to 120) (unknown origin) expressed in Escherichia coli BL21-DE3 cells by FPA assay
[4] = target: T1, Replication protein A 70 kDa DNA-binding subunit; test: Binding affinity to RPA70N (1 to 120) site2 (unknown origin) expressed in Escherichia coli BL21-DE3 cells by NMR spectroscopy
[5] = target: T1, Replication protein A 70 kDa DNA-binding subunit; test: Binding affinity to RPA70NAB (unknown origin) by FPA assay
[6] = target: T1, Replication protein A 70 kDa DNA-binding subunit; test: Displacement of FITC-ss-DNA from RPA70AB domain (unknown origin) by FPA assay
[7] = target: T1, Replication protein A 70 kDa DNA-binding subunit; test: Displacement of FITC-ss-DNA from RPA70NAB domain (unknown origin) by FPA assay
[8] = target: T1, Replication protein A 70 kDa DNA-binding subunit; test: Displacement of FITC-ATRIP2 from RPA70NAB domain (unknown origin) by FPA assay
[9] = target: T1, Replication protein A 70 kDa DNA-binding subunit; test: Displacement of FITC-ATRIP2 from RPA70N (1 to 120) (unknown origin) by FPA assay

T1 sequence (P27694 whole entry): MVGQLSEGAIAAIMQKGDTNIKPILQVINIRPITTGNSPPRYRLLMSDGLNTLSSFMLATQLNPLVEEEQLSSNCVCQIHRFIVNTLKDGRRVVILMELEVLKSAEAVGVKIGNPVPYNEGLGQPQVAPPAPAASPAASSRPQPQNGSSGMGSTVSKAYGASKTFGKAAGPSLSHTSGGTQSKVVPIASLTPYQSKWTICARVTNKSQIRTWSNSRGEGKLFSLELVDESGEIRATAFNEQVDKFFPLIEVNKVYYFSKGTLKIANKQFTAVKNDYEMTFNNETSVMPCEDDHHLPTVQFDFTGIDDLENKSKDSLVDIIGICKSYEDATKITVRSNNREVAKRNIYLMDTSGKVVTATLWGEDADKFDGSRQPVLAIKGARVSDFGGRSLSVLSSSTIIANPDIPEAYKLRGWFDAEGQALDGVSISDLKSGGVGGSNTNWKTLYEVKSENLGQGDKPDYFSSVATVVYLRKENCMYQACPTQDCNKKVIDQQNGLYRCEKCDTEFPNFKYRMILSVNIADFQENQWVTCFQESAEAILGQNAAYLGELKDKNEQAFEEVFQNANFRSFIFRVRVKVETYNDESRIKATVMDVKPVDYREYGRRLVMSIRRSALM

Cc1cccc2c(-c3ccccc3)c(C(=O)O)[nH]c12
Kd [1]: 640 µM

Cc1cccc(-n2nc(C(=O)O)cc2-c2ccc(OCc3ccc(-c4ccc(C(=O)O)o4)cc3)cc2)c1
Kd [2]: 26 µM | Kd [3]: 20 µM

CCc1c(O)[nH]c2nc3ccccc3n2c1=O
Kd [4]: 1620 µM

O=C(O)c1ccc(-c2ccc(F)c(Cl)c2)o1
Kd [4]: 1400 µM | Kd [1]: 710 µM

O=C(O)c1cc(-c2ccc(CNC(=S)c3ccc(-c4ccc(C(=O)O)o4)cc3Cl)cc2)n(-c2ccc(Cl)c(Cl)c2)n1
Kd [5]: 0.29 µM | Kd [6]: 5.2 µM | Kd [7]: 2.3 µM | Kd [8]: 0.323 µM | Kd [9]: 0.19 µM | Kd [3]: 0.19 µM

Cc1cccc(-n2nc(C(=O)O)cc2-c2ccccc2)c1
Kd [4]: > 2000 µM | Kd [1]: 580 µM

O=C(O)c1cc(-c2ccc(F)cc2)n[nH]1
Kd [4]: 1120 µM

O=C(O)c1cc(-c2ccc(CNC(=O)c3ccc(-c4ccc(C(=O)O)o4)cc3Cl)cc2)n(-c2ccc(Cl)c(Cl)c2)n1
Kd [2]: 2.9 µM
